One data set deals with Hep3B cells. The experiment in a line: alamarBlue cell viability, Hep3B. It counts as cell-based, human. An excerpt:
(§1) Next, we analyzed the effect of PGG on cell proliferation in different liver cancer cell lines, including Huh7, Hep3B (ATCC-No 8064), HepG2 (ATCC HB-8065), SK-HEP-1 (ATCC HTB-52), Mahlavu and HepG2 (ATCC HB-8065).
(§2) Please refer to FIG. 18, which illustrates the effect of PGG on cell proliferation in different liver cancer cell lines, wherein the numeral 1 denotes Huh7 cells, the numeral 2 denotes Hep3B cells, the numeral 3 denotes SK-HEP-1 cells, the numeral 4 denotes Mahlavu cells, and the numeral 5 denotes HepG2 cells. And cell viability was determined by the alamarBlue® viability assay. IC50 values of PGG in each cell line are shown as follows: Huh7 cells 0.03 mg/mL, Hep3B cells 0.07 mg/mL, SK-HEP-1 cells, Mahlavu cells and HepG2 0.10 mg/mL dose-dependent.
(§3) Human liver cancer cell lines Huh7, Hep G2, Hep 3B, SK-HEP-1, Mahlavu and embryonic kidney cell line HEK-293T all were cultured in Dulbecco's Modified Eagle's Medium (DMEM) (Gibco BRL, Grand Island, N.Y., USA) with 10% heat-inactivated fetal bovine serum (HyClone, Logan, Utah, USA), penicillin (100 U/mL), streptomycin ([…]), nonessential amino acids (0.1 mM/L) and L-glutamine (2 mM/L) in a humidified incubator with 5% CO2.
On the technique in general: The colour change of resazurin is a common sign of viable cells or microbes.

The next data set relates to SK-HEP-1 cells. The experiment in a line: alamarBlue cell viability, SK-HEP-1. It counts as cell-based, human.
Source text: as §1, §2, §3

The subject of a further data set is GNMT. The experiment in a line: GNMT expression in xenograft tumor samples. The format is in vivo, mice. An excerpt: Please refer to FIG. 21, which illustrates GNMT/actin expression in the tumor tissue.
Please refer to FIG. 30, which illustrates the relative expression of GNMT mRNA in the tumor xenograft mice after treatments, wherein the numeral 1 is for a physiological saline solution, the numeral 2 is for F3-6 (25 mpk), the numeral 3 is for F3-6 (300 mpk), the numeral 4 is for sorafenib (10 mpk), the numeral 5 is for F3-6 (25 mpk) with sorafenib (10 mpk), and the numeral 6 is for PGG (25 mpk) with sorafenib (10 mpk). The expression activity of GNMT mRNA is increased whenever fracrions F3-6 or PGG are administered.
RNA was prepared by using Tri Reagent (Sigma-Aldrich, St Louis, Mo., USA) and was reverse transcribed into cDNA using a Super Script II Reverse Transcriptase Kit (Invitrogen Inc., Carlsbad, Calif., USA).
PCR was performed on an ABI StepOne Plus System (Applied Biosystems, Foster City, Calif., USA) using the LightCycler® First Start DNA Master SYBR Green I reagent (Roche Diagnostics, Basel, Switzerland). The mRNA level was normalized using the TATA-box binding protein (TBP) mRNA level as the standard. […]
Protein lysates were quantified and separated on SDS-PAGE gel, and immunoblotting was carried out. […]

A further data set concerns Huh7 cells. The data set is described as follows: Apoptosis in Huh7 cells (Annexin V flow cytometry, cleaved caspase 3 immunoblot). It counts as cell-based, human. How it is done:
Please refer to FIG. 22, which illustrates sub-G1 of cells in population. And flow cytometry analysis is done after 24 hours of PGG (0.1 mg/mL) treatment as illustrated in FIG. 22.
Please refer to FIG. 23, which illustrates fluorescence intensity in Annexin-V-positive cells among Huh7 cells.
In summary, administration of PGG to Huh7 cells can induce apoptosis.
Cells were harvested and fixed with cold 75% ethanol overnight and stained with propidium iodide (10 ug/mL) and RNase A (1 mg/mL) at 37 □ for 30 min. The cells were then analyzed by an Accuri C6 Flow cytometer (BD Biosciences, San Jose, Calif., USA). Cells were stained for Annexin V—APC Apoptosis Detection Kit according to the manufacturer's protocol (eBioscience, San Diego, Calif., USA).
(In general: In flow cytometry, cells or beads pass a laser one at a time.)

The subject of data set [1] is c-Myc protein. The data set is described as follows: c-Myc protein expression by immunoblotting, Huh7. It counts as cell-based, human. The settings on record: Huh7 cells. How it is done: (§4) Please refer to FIG. 32A, FIG. 32B, FIG. 33A and FIG. 33B.
(§5) Cells or xenograft tumors were harvested with RIPA lysis buffer (50 mM Tris (pH 7.5), 150 mM NaCl, 1% Triton X-100, 0.1% sodium dodecyl sulfate (SDS), 0.5% sodium deoxycholate, supplemented with protease and phosphatase inhibitors (1 mM Phenylmethanesulfonyl Fluoride (PMSF), […], […] Tosyllysine Chloromethyl Ketone (TLCK), […] Tosyl phenylalanyl chloromethyl ketone (TPCK), […] aprotinin, 1 mM sodium fluoride (NaF), 5 mM sodium pyrophosphate (NaPPi) and 10 mM sodium orthovanadate (Na3VO4).
(§6) Protein lysates were quantified and separated on SDS-PAGE gel, and immunoblotting was carried out.
For orientation: In western blotting, separated proteins are transferred to a membrane and probed.

Data set [2] concerns c-Myc protein. The experiment in a line: c-Myc protein expression by immunoblotting, HepG2. The settings on record: HepG2 cells. It counts as cell-based, human. How it is done: as §4, §5, §6
Data set [3] has as its system Huh7 cells (shLacZ, shGNMT, shMyc, c-Myc overexpression). The experiment in a line: PGG cytotoxicity in Huh7 cells with GNMT or c-Myc knock-out or c-Myc overexpression. It counts as cell-based, human. How it is done: As to the mechanism for how to suppress the growth of liver cancer cells by PGG, it was deduced that by virtue of induced GNMT expression by PGG it could interfere liver cancer cells. And it can be expected to have the claimed therapeutic effect of PGG by knocking out GNMT. With transformed Huh7 cells, shRNAs which have stable expressions of GNMT are evaluated.
Please refer to FIG. 40, which illustrates PGG affects the viability in different cell lines, wherein the numeral 1 denotes shLacZ, the numeral 2 denotes shGNMT-1, and the numeral 3 denotes shGNMT-2.
Please refer to FIG. 41, which illustrates the viability in Huh7 cells, wherein the numeral 1 denotes vehicle, the numeral 2 denotes c-Myc, the numeral 3 denotes solvent, and the numeral 4 denotes PGG.
Please refer to FIG. 44, which illustrates the viability in Huh7 cells, wherein the numeral 1 denotes shLacZ, and the numeral 2 denotes shMyc.
Stablized cells comprises Huh7-GFP, Huh7-GNMT, Huh7-shGNMT, Huh7-shLacZ and Huh7-shMyc, which are established via the lentivirus system and cultured in Dulbecco's Modified Eagle's Medium (DMEM) (Gibco BRL, Grand Island, N.Y., USA) with 1 μg/ml puromycin.

Converted amounts (≈) assume the structure as drawn.

A word on the IC50: it is the concentration that gives 50% inhibition. A lower IC50 goes with greater potency.

Compound `O=C(OC[C@H]1O[C@@H](OC(=O)c2cc(O)c(O)c(O)c2)[C@H](OC(=O)c2cc(O)c(O)c(O)c2)[C@@H](OC(=O)c2cc(O)c(O)c(O)c2)[C@@H]1OC(=O)c1cc(O)c(O)c(O)c1)c1cc(O)c(O)c(O)c1` [PGG, 1,2,3,4,6-penta-O-galloyl-β-D-glucopyranoside] came in with an IC50 in the data set on Hep3B cells of 0.07 mg/mL (≈ 74.4 µM). The same compound returned an IC50 in the data set on SK-HEP-1 cells of 0.10 mg/mL (≈ 106 µM). Moreover, the “GNMT/actin expression in the tumor tissue (immunoblot)” value with GNMT (PGG 300 mpk xenograft, FIG. 21) is given as “induced”. In addition, the “expression activity of GNMT mRNA in the tumor” value in the data set with GNMT (combination xenograft study, FIG. 30, F3-6 25 or 300 mpk, PGG 25 mpk with sorafenib 10 mpk) was “increased”. Further, in the data set with Huh7 cells, the “apoptosis (Annexin V staining)” value was “significantly induce apoptosis” and the “level of cleaved caspase 3 (immunoblot)” value was “increased the level of cleaved caspase 3 in a dose-dependent manner”. Besides, in the data set on c-Myc protein [1], the “expression of c-Myc protein, dose dependence” value was “suppresses the expression of c-Myc protein in Huh7 cells in a dose-dependent manner” and the “expression of c-Myc protein, time dependence” value is on record as “suppresses the expression of c-Myc protein in Huh7 cells in a time-dependent manner”. Further, in the data set on c-Myc protein [2], the “expression of c-Myc protein, dose dependence” value is on record as “suppresses the expression of c-Myc protein in HepG2 cells in a dose-dependent manner” and the “expression of c-Myc protein, time dependence” value is given as “suppresses the expression of c-Myc protein in HepG2 cells in a time-dependent manner”. Further, the “cytotoxicity with ectopically overexpressed c-Myc” value in data set [3] (0.1 mg/mL, FIG. 41) is “there is still cytotoxicity”. Further, in data set [3] (FIG. 40), the “cytotoxicity when GNMT is knocked out (shGNMT-1, shGNMT-2 vs shLacZ)” value is “no obvious improvement for the cytotoxicity caused by PGG”. Further, the “cell viability of Huh7-shMyc cells compared with Huh7-shLacZ cells” value in data set [3] (FIG. 44) is “only slightly decrease cell viability”.
